Data on two compounds can be found in article PMC12726774, “HAEEPGP Peptide Efficiently Prevents Alzheimer's Disease Pathology in Vivo” (Alzheimer's & Dementia, 2025).

One may read the half-life as the time needed for the level to fall by half in the phase considered. One may read the Kd as the free concentration of one partner at which half of the binding sites on the other are occupied at equilibrium, for simple one-to-one binding.

Read-outs that look alike come from different tables or passages of the source. Residues, ends and D or L forms follow the SMILES beside them. No end group written: not given here.

One data set can be described thus: in vivo. The conditions noted are these: mouse, plasma, iv. The source says:
(§1) Abstract Background Currently, the only disease‐modifying therapy for Alzheimer's disease (AD) is monoclonal antibodies against beta‐amyloid (Aβ). […] Short peptides could be an alternative treatment to high‐molecular weight antibodies. They have been successfully tested against various neuropathologies. […] The disadvantage of short peptides is their rapid elimination from an organism. In this work, we added PGP amino acids to the HAEE C‐terminus to stabilize the peptide, studied the pharmacokinetics of HAEEPGP and its ability to suppress AD‐associated pathology. Method Direct interaction of HAEEPGP and Aβ peptides was measured by isothermal titration calorimetry. Pharmacokinetics and distribution to tissues of ^125I labeled HAEEPGP were studied after its intravenous injection in C57BL/6 or 5xFAD mice. HAEEPGP ability to prevent Aβ pathological effect on HMC3 microglial cells was assessed by flow cytometry and IL‐6 ELISA kit. HAEEPGP inhibition effect on AD pathology was studied in vivo using two animal models: transgenic C. elegans overexpressing human Aβ and 5xFAD mice. […] Supported by the Russian Science Foundation (grant #19‐74‐30007).

The conditions of data set [1]: background statement, no reference given; cited from earlier work. The text has this: They have been successfully tested against various neuropathologies. […] The disadvantage ...
In a further data set the target is Aβ (Homo sapiens, UniProt P05067). As to the kind of experiment: Isothermal titration calorimetry, interaction of HAEEPGP with Aβ. The settings on record: read-out: Kd of binding to Aβ.
Text: as §1

For data set [2] the following is noted: 125I labeled peptide.
Text: as §1

Sequence of Aβ (P05067 672-713 limits assumed): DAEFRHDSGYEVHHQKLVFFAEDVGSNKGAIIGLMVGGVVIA

In the case of `C[C@H](NC(=O)[C@@H](N)Cc1c[nH]cn1)C(=O)N[C@@H](CCC(=O)O)C(=O)N[C@@H](CCC(=O)O)C(=O)O` [HAEE] (H-HAEE-OH), the half-life in “in vivo” amounted to 17 min. In addition, in data set [1], the BBB crossing entry is “able to cross the BBB” and the “toxic effect in vivo” value is on record as “no toxic effect”.
The compound HAEEPGP [HAEEPGP] returned a half-life in “in vivo” of 56 ± 12 min. In addition, the Kd on Aβ was 1640 nM. Further, the BBB crossing entry in data set [2] (intravenous injection, mice) is listed as “propitiously crossed BBB”. Besides, the “level in the mice brain over time” value in data set [2] (during an hour post-injection, intravenous) is recorded as “constantly increased”. Besides, the “level in the brain, 5xFAD vs wild type mice” value in data set [2] (intravenous, 5xFAD vs C57BL/6) is “higher in 5xFAD than in wild type mice”.
